One assay relates to conscious guinea-pigs. The assay can be described thus: Aerosolized ATP-induced bronchoconstriction in conscious guinea-pigs (sRaw). The assay is classed as in vivo, guinea-pig. The conditions noted are these: n=6. The protocol: This study was performed in 6 guinea-pigs. The housing room was constantly ventilated, and the temperature kept at ˜23° C. After quarantine, the animals were individually placed in a whole-body, unrestrained, plethysmograph chamber (model PLY3215, Buxco Electronics Inc., Troy, N.Y.) for ˜40 min once a day for two continuous days before the cough test. All GPs were weighed before the cough study.
ATP was purchased from Sigma-Aldrich (Cat #A2383-10G). Solutions of ATP used for aerosol challenge were freshly made just prior to use by dissolving the powder in 0.9% saline (NaCl) solution. Solutions of DT-0111 used for aerosol administration were freshly made by dissolving the powder in 0.9% saline (NaCl) solution.
A plethysmograph chamber was continuously flushed with normoxic (21% O2 and 79% N2) room air at 2 L/min. The same amount of air was drawn through the chamber base outlets using a Buxco bias flow regulator to keep the chamber bias flow balanced. ATP or DT solution was aerosolized by using a vibrating mesh nebulizer (Ireland Ltd., Galway Ireland, AG-AL1100). The output rate of delivered aerosol was around 0.5 ml/min with droplet size (volume median diameter) at 2.5-4.0 μm (manufacture's indications). […]
The results are expressed as percent change in airway pressure (sRaw). n=6; * p<0.05, vs. ATP 0.0 mg/ml; †p<0.05, DT-0111 vs. Ctrl at the same ATP dose.

The test system of a further assay is anesthetized guinea-pigs. The assay can be described thus: ATP-induced bronchoconstriction in anesthetized guinea-pig (tracheal pressure). The conditions noted are these: pretreatment with aerosolized DT-0111, anesthetized guinea-pigs. The assay is classed as in vivo. The protocol:
Male Dunkin-Hartley guinea pigs (GPs) (220-250 g, Charles River) were quarantined for 14 days. The housing room was constantly ventilated, and the temperature kept at 23° C. Mean body weight of the GPs on day of experiment was 336.0±9.9 g. Anesthesia were induced by using a mixture of ketamine+xylazine (40-80 mg/kg+5-10 mg/kg; IM) as previously published (Zhuang, et al., “High-Frequency Electrical Stimulatino of Cervical Vagi Reduces Airway Response to Methacholine,” World J. of Respirology 2013 Jul. 28; 3(2): 11-19). Supplementary anesthetic doses (¼-½ of the original dose) were administered as needed if ear pinch changed respiratory rate and/or upon the manifestation of an accelerated heart rate. Body temperature was monitored continuously with a rectal thermometer and maintained at approximately 36.5° C. using a heating pad and lamp. […]
The side branch of the tracheal cannulation was connected a pressure transducer. The pressure signal was pre-amplified by a bridge amplifier (AD Instruments Inc., CO) and then digitized and recorded. […] The pressure signal and animal rectal temperature were monitored and digitally recorded continuously in computer files throughout the experiment using the PowerLab/8 sp data acquisition system (AD Instruments) with DELL XPS 8700 computer equipped with Microsoft Windows 7 and LabChart Pro 7 software. […]

Another assay has as its target T1, P2Y14 (Homo sapiens, UniProt Q15391).
T1 construct: expressed in transfected cells
T1 sequence (Q15391 1-338): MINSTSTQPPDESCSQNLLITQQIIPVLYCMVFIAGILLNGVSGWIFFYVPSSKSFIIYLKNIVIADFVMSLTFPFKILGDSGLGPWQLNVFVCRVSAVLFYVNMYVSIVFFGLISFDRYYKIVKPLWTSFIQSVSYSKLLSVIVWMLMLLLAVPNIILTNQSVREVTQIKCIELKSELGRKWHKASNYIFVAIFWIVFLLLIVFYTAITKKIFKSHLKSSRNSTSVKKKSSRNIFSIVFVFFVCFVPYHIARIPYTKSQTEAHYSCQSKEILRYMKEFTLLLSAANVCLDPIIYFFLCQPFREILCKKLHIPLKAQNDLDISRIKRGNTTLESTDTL
The experiment in a line: PDSP functional assay in vitro (PRESTO-Tango), agonist/antagonist. It is filed as cell-based. The procedure: (§1) The assays were carried out utilizing the method set forth in Kroeze et al., PRESTO-Tango as an open-source resource for interrogation of the druggable human GPCRome, Nat. Struct. Mol. Biol. 2015 May; 22(5):362-9.

The target of the next assay is T2, P2Y1 (Homo sapiens, UniProt P47900).
T2 construct: expressed in transfected cells
T2 sequence (P47900 whole entry): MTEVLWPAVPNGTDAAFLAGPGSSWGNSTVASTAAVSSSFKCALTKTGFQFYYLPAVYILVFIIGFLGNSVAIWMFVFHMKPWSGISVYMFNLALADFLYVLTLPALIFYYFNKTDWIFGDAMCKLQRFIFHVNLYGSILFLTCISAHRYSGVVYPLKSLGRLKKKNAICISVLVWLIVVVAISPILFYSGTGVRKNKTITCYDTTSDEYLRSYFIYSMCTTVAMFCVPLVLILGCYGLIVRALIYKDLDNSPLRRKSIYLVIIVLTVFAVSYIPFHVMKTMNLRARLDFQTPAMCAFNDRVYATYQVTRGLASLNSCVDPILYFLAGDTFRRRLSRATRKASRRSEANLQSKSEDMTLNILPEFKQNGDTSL
Described as above. The assay is classed as cell-based. The protocol: as §1

With “Sodium 3′-N-(3,5-dimethoxybenzoyl)-3′-deoxy-β-D-adenosine 5′-triphosphate [DT-0111]”, the “effect on aerosolized ATP-induced bronchoconstriction” value in the assay with conscious guinea-pigs is on record as “Suppresses”. In addition, the “tracheal pressure (Ptr) after ATP doses” value with anesthetized guinea-pigs is on record as “significantly suppressed”. The “agonist or antagonist action at receptor” value at P2Y14 and at P2Y1 was “does not act as an agonist or antagonist” each time.

These data come from patent US11440935B2, “3″,5″-dimethoxybenzoyl-3′-amino-3′-deoxy adenosine-5′-triphosphates and pharmaceutical uses thereof” (Danmir Therapeutics, LLC, priority 2018, dated 2022).
